Values of other authors in US12655168B2, “Isolation of steviol glycosides” (DSM IP ASSETS B.V., priority 2019, dated 2026).
One block for each compound: values may come before it.

Columns and labels:
[1] = Type II diabetics
[2] = mildly hypertensive patients
[3] = relative to sucrose
[4] = new hemihydrate crystal form; obtained after heating and cooling a 0.06% reb B solution to room temperature

Compound: C=C1C[C@@]23CC[C@H]4[C@@](C)(CCC[C@@]4(C)C(=O)O[C@@H]4O[C@H](CO)[C@@H](O)[C@H](O)[C@H]4O)[C@@H]2CC[C@]1(O[C@@H]1O[C@H](CO)[C@@H](O)[C@H](O)[C@H]1O[C@@H]1O[C@H](CO)[C@@H](O)[C@H](O)[C@H]1O)C3 [Stevioside]
- effect on blood glucose levels [1]: reduce blood glucose levels
- effect on blood pressure [2]: reduce blood pressure

Compound: C=C1C[C@@]23CC[C@H]4[C@@](C)(CCC[C@@]4(C)C(=O)O[C@@H]4O[C@H](CO)[C@@H](O)[C@H](O)[C@H]4O[C@@H]4O[C@H](CO)[C@@H](O)[C@H](O)[C@H]4O)[C@@H]2CC[C@]1(O[C@@H]1O[C@H](CO)[C@@H](O)[C@H](O[C@@H]2O[C@H](CO)[C@@H](O)[C@H](O)[C@H]2O)[C@H]1O[C@@H]1O[C@H](CO)[C@@H](O)[C@H](O)[C@H]1O)C3 [rebaudioside D]
- times sweeter than sucrose [3]: about 200 times

- solubility in water [4]: 50 ppm
Compound: rebaudioside B
